Consider 12 molecules from patent publication US20250051323A1 (RICHTER GEDEON NYRT., priority 2021, published 2025).

Structures can show the parent of a compound that is named as a salt.

The target in this assay is human recombinant GABAA α5β3γ2 receptor (Homo sapiens (Human), UniProt P18507+P31644). Nature of the assay: Binding assay, [3H]Ro151788 displacement on HEK cell membranes. Particulars: [3H]Ro151788 0.5 nM, 60 minutes at 4° C., Cheng-Prusoff; read-out: hGABAA α5 Ki. The protocol: The GABAA α5β3γ2 protein used for the receptor binding assay was derived from membranes produced from HEK cells (Millipore CYL3073) expressing the human recombinant GABAA α5β3γ2 receptor. Cells were stored and cultured in-house according to the instructions provided by the vendor (Millipore). Cell pellet was homogenized in 10 times modified Krebs Henseleit buffer (membrane preparation buffer): 20 mM Tris, 120 mM NaCl, 100 mM KCl, 25 mM CaCl2 and 25 mM MgCl2 pH=7.4 at 4° C. using Ultra Turrax (Janke&Kunkel) maximal speed for 15 seconds. The homogenate was centrifuged at 40,000 g for 30 minutes at 4° C. Supernatant was discarded and the resulting pellet was washed in membrane preparation buffer. Pellet was resuspended in membrane preparation buffer and aliquots of 1.4 mL ampules were stored at −70° C. until use.
Chain of human recombinant GABAA α5β3γ2 receptor (P31644 32-462): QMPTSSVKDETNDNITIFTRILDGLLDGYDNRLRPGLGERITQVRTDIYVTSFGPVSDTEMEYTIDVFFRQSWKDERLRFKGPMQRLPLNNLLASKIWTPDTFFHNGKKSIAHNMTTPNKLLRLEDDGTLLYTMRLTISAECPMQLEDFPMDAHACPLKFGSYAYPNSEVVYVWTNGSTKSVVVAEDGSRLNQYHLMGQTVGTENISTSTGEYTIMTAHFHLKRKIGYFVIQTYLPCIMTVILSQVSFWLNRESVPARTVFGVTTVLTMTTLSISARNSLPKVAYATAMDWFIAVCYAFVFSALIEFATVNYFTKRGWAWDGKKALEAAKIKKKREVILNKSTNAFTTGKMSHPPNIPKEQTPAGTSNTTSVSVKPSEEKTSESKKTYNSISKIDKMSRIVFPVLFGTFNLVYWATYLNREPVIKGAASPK
Chain of human recombinant GABAA α5β3γ2 receptor (P28472 26-473 partner): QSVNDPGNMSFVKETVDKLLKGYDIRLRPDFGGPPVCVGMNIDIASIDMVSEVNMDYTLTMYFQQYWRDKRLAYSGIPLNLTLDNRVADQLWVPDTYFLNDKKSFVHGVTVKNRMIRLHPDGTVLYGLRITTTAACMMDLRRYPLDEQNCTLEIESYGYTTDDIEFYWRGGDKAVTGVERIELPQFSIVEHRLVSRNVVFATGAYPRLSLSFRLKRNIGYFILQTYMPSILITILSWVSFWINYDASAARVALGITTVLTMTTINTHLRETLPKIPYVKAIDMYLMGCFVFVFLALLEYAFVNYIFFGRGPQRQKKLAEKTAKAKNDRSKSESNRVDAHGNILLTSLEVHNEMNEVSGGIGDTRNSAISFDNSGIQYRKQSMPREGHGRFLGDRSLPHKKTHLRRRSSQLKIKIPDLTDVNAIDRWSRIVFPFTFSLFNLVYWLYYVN
Chain of human recombinant GABAA α5β3γ2 receptor (P18507 40-475): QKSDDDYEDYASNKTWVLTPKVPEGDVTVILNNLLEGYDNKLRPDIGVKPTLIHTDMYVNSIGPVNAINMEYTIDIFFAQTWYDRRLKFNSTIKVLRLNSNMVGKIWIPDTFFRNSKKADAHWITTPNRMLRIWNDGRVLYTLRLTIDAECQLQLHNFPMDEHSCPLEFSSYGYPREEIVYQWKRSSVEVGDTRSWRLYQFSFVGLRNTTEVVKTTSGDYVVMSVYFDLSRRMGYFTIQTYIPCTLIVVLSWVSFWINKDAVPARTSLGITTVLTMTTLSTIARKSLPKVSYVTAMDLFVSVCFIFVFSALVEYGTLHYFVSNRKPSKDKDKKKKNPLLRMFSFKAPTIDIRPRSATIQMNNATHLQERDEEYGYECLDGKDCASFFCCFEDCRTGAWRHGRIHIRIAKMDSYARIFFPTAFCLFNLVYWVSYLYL
Receptor binding assays were performed in 96-well format in deep-well plates. For each 96-well plate one ampule of membrane homogenate was thawed and diluted in binding buffer (50 mM Tris pH=7.4, 100 mM KCl) and 200 μL was dispensed into each well. Radioligand [^3H]Ro151788 (Perkin Elmer: NET757250UC) was prepared in binding buffer and added to each well in 50 μL volume to give final concentration of 0.5 nM. Test compounds in suitable concentration(s) were added in additional 50 μL. The final assay volume was 300 μL. Incubation was carried out for 60 minutes at 4° C. For non-specific binding 10 μM unlabeled diazepam was used. […] The plate was dried at 40° C. for an hour and 40 μL Microscint (Perkin Elmer) scintillation cocktail was added to each well. The plate was read in Microbeta (Perkin Elmer).
The specific radioligand binding (SB) was defined as the difference between total binding (Tot) and the non-specific binding (NSB). Results are expressed as a percent inhibition of specific binding obtained in the presence of compound of interest.
For IC50 and Ki determination a minimum of six drug concentrations in triplicate were used. […] Ki values (i.e., inhibition constants) were calculated using the Cheng-Prusoff equation Ki=IC5O/[1+(L/KD)], where [L] is the radioligand concentration and KD the affinity of the labelled ligand for receptor. KD was determined from the Saturation analyses.
In general, Ki refers to a dissociation constant, usually derived from enzyme kinetics or from competition with a known ligand. As to `Cc1ccc(-c2noc(C)c2COc2cc3c(cn2)CN(C)CC3)cn1` [Example 3, 2-methyl-6-{[5-methyl-3-(6-methylpyridin-3-yl)-1,2-oxazol-4-yl]methoxy}-1,2,3,4-tetrahydro-2,7-naphthyridine], the Ki was found to be 4.2 nM. Then `Cc1onc(-c2ccc(C(F)(F)F)nc2)c1COc1cc2c(cn1)CN(C(C)CS(C)(=O)=O)CC2` (stereo not drawn) [Example 12, 2-(1-methanesulfonylpropan-2-yl)-6-({5-methyl-3-[6-(trifluoromethyl)pyridin-3-yl]-1,2-oxazol-4-yl}methoxy)-1,2,3,4-tetrahydro-2,7-naphthyridine], with 28.2 nM. As for `Cc1nnn(-c2ccc(C(F)(F)F)nc2)c1COc1cc2c(cn1)CN(C(C)C)CC2` [Example 26, 6-({4-methyl-1-[6-(trifluoromethyl)pyridin-3-yl]-1H-1,2,3-triazol-5-yl}methoxy)-2-(propan-2-yl)-1,2,3,4-tetrahydro-2,7-naphthyridine], the figure is 93.8 nM; as for `Cc1ccc(-c2noc(C)c2COc2cc3c(cn2)CN(CC2CCC2)CC3)cn1` [Example 5, 2-(cyclobutylmethyl)-6-{[5-methyl-3-(6-methylpyridin-3-yl)-1,2-oxazol-4-yl]methoxy}-1,2,3,4-tetrahydro-2,7-naphthyridine], 7.4 nM. Then `Cc1ccc(-n2nnc(C)c2COc2cc3c(cn2)CN([C@@H]2CCOC2)CC3)cn1` (single isomer, unassigned) [Example 38, 6-{[4-methyl-1-(6-methylpyridin-3-yl)-1H-1,2,3-triazol-5-yl]methoxy}-2-[(3S)-oxolan-3-yl]-1,2,3,4-tetrahydro-2,7-naphthyridine or enantiomer, tartarate salt], with 20.9 nM; and `Cc1ccc(-c2noc(C)c2COc2cc3c(cn2)CN(C2CCCC2)CC3)cn1` [Example 6, 2-cyclopentyl-6-{[5-methyl-3-(6-methylpyridin-3-yl)-1,2-oxazol-4-yl]methoxy}-1,2,3,4-tetrahydro-2,7-naphthyridine], with 8.4 nM; and `Cc1nnn(-c2ccc(C(F)F)nc2)c1COc1cc2c(cn1)CNCC2` [Example 23, 6-({1-[6-(difluoromethyl)pyridin-3-yl]-4-methyl-1H-1,2,3-triazol-5-yl}methoxy)-1,2,3,4-tetrahydro-2,7-naphthyridine], with 7.3 nM.

For `Cc1onc(-c2ccc(C(F)(F)F)nc2)c1COc1cc2c(nn1)CN(C)CC2` [Example 17], the inhibition constant Ki amounted to 17.6 nM. Then `Cc1nnn(-c2ccc(C(F)(F)F)nc2)c1COc1cc2c(cn1)CN(C1CCOCC1)CC2` [Example 35, 6-({4-methyl-1-[6-(trifluoromethyl)pyridin-3-yl]-1H-1,2,3-triazol-5-yl}methoxy)-2-(oxan-4-yl)-1,2,3,4-tetrahydro-2,7-naphthyridine], with 88.8 nM; and `Cc1nnn(-c2ccc(C(F)F)nc2)c1COc1cc2c(cn1)CN(C(C)C)CC2` [Example 28, 6-({1-[6-(difluoromethyl)pyridin-3-yl]-4-methyl-1H-1,2,3-triazol-5-yl}methoxy)-2-(propan-2-yl)-1,2,3,4-tetrahydro-2,7-naphthyridine], with 5.9 nM.

As for `Cc1ccc(-n2nnc(C)c2COc2cc3c(cn2)CN([C@H]2CCOC2)CC3)cn1` (single isomer, unassigned) [Example 39, 6-{[4-methyl-1-(6-methylpyridin-3-yl)-1H-1,2,3-triazol-5-yl]methoxy}-2-[(3R)-oxolan-3-yl]-1,2,3,4-tetrahydro-2,7-naphthyridine or enantiomer, tartarate salt], the Ki is 21.4 nM. Then `Cc1nnn(-c2ccc(C(F)(F)F)nc2)c1COc1cc2c(cn1)CN(C)CC2` [Example 27, 2-methyl-6-({4-methyl-1-[6-(trifluoromethyl)pyridin-3-yl]-1H-1,2,3-triazol-5-yl}methoxy)-1,2,3,4-tetrahydro-2,7-naphthyridine], with 63.2 nM.
